Tests used:
[1] = system: OVCAR-5 human ovarian tumour cells; assay: OVCAR-5 cell line cytotoxicity (resazurin); format: cell-based; settings: 96 hours, read-out: ZC-423 IC50
Protocol: (§1) LOXIMVI and OVCAR-5 Cell Lines
(§2) A cell solution containing 5×10^4 cells/ml of either LOXIMVI human melanoma cells or OVCAR-5 human ovarian tumour cells was made up in phenol red free RPMI 1640 (Sigma) supplemented with 10% foetal calf serum (Sigma) and 20 mM L-glutamine (Sigma). 190 μl cell solution was added to each well of a fluorescence compatible polystyrene 96 well cell culture plate (Greiner BioOne), from columns 2 to 11. 190 μl culture media was added to columns 1 and 12. Plates were incubated overnight at 37° C. in 5% CO2. Compounds were dissolved in 100% Biotech grade DMSO (Sigma) and subsequently diluted to stock concentrations in 2% DMSO. 100 μl of the stock concentrations were serially diluted 1 in 3 in 2% DMSO in intermediate polystyrene 96 well cell culture plates (Nunc). 2% DMSO was placed in the outer columns for use as blanks, and in the 2nd or 11th column (depending on whether the top or bottom of an assay plate was to be used) for use as a control. The entire row of the intermediate plate was then transferred in triplicate, 10 μl per well, to either rows B to D or E to G of the cell plate. […] Fluorescence was read at 530-570 nm excitation, 580-620 nm emission using an Envision plate reader (Applied Biosystems). Data was then analysed by Graphpad PRISM, and an IC50 obtained (defined as the compound concentration needed to reduce the cell population by half).

[2] = Solubility in water; format: physicochemical; settings: saturated solution in water
Protocol: Solubility was determined by dissolving the test compound in the minimum amount of water to produce a saturated solution.

[3] = Single intravenous maximum tolerated dose; format: in vivo, mice; settings: previously established
[4] = system: LOX IMVI (human melanomas); assay: Anti tumour activity, LOX IMVI xenograft in nude mice; format: in vivo
Protocol: LOX IMVI (human melanomas) were grown subcutaneously in nude mice (B&K Universal, Hull, UK). Tumours were transplanted as single tumour fragments in the flank by trocar. Groups of 8 tumour-bearing mice were treated with ZC423 at the previously established single intravenous (iv) maximum tolerated dose (MTD) of 3 mgkg^−1 using 5% DMA/saline as the vehicle. Control mice (n=8) were treated with vehicle alone.
Treatment commenced when tumours could be reliably measured by calipers (mean dimensions 4×4 mm) and therapeutic effects were assessed by daily caliper measurements of the tumour and mouse weights. Tumour volumes were determined by the formula a^2×b/2 where a is the smaller and b is the larger diameter of the tumour. The results are shown in FIG. 1 as a graphs of relative tumour volume against time (▪ ZC423; ♦ Control—solvent alone).

[5] = system: LOXIMVI human melanoma cells; assay: LOXIMVI cell line cytotoxicity (resazurin); format: cell-based; settings: 96 hours, read-out: ZC-423 IC50
Protocol: as §1, §2

[6] = system: K562 human chronic myeloid leukaemia cells; assay: K562 cell line MTT assay, 96 hour exposure; format: cell-based; settings: 96 hour incubation
Protocol: In a modification of the above method, 5×10^4 K562 cells (as above) were maintained in RPMI 1640 medium (Sigma) supplemented with 10% foetal calf serum (Sigma) and 20 mM L-glutamine (Sigma) and 190 μL of this solution incubated with specific doses of the drug (10 μL) for 96 hours at 37° C. in 5% CO2. 250 μg/ml (final) MTT was added to each well and the plates incubated for a further 4 hours. Absorbance was read at 450 nm using an Envision plate reader (Applied Biosystems). Data was then analysed by Graphpad PRISM, and an IC50 obtained (defined as the compound concentration needed to reduce the cell population by half).

[7] = system: Closed-circular puc18 DNA linearized with HindIII; assay: DNA cross-linking (agarose gel); format: biochemical; settings: amount required to cross-link 50% of the DNA (XL50), 37° C., pH 7.2
Protocol: Closed-circular puc18 DNA was linearized with HindIII, then dephosphorylated, and finally 5′ end labeled with [y32P]-ATP using polynucleotide kinase. Reactions containing 10 ng of DNA and drug were carried out in aqueous 1×TEOA (25 mM triethanolamine, 1 mM EDTA, pH 7.2) buffer at a final volume of 50 μL at 37° C. Reactions were terminated by addition of an equal volume of stop solution (0.6 M NaOAc, 20 mM EDTA, 100 μg/mL tRNA) followed by precipitation with ethanol. Following centrifugation of the samples, the supernatants were discarded and the pellets were dried by lyophilization. […]
Electrophoresis was performed on a 0.8% submerged horizontal agarose gel, 20 cm in length for 16 hours at 38-40 V in 1×TAE running buffer (2.42 g Tris Base, 0.372 g EDTA, 0.571 ml glacial acetic acid). […] The film bands were quantitated using a BioRad GS-670 imaging laser densitometer. The percentage of cross-linking was calculated by measuring the total DNA in each lane (the sum of the densities for the double-stranded and single-stranded bands) relative to the amount of density of double-stranded band alone. A dose response curve was derived by plotting drug concentration against the determined percentage level of cross-linked DNA, from which was derived the amount required to cross-link 50% of the DNA (XL50).

[8] = system: K562 cells; assay: K562 cell line Alamar Blue assay; format: cell-based, human; settings: 96 hours
Protocol: K562 Cell Line (Alamar Blue Assay)
The compounds to be tested were dissolved in 100% Biotech grade DMSO (Sigma) and subsequently diluted to stock concentrations of either 2 μM or 200 nM in 2% DMSO. 100 μl of the stock concentrations were serially diluted 1 in 3 in 2% DMSO in intermediate polystyrene 96 well cell culture plates (Nunc). 2% DMSO was placed in the outer columns for use as blanks, and in the 2nd or 11th column (depending on whether the top or bottom of an assay plate was to be used) for use as a control. The entire row of the intermediate plate was then transferred in triplicate to either rows B to D or E to G of a fluorescence compatible polystyrene 96 well cell culture plate (Greiner BioOne); 10 μl to each well. A cell solution containing 5×10^4 cells/ml was made up in phenol red free RPMI 1640 (Sigma) supplemented with 10% foetal calf serum (Sigma) and 20 mM L-glutamine (Sigma). 190 μl cell solution was added to each well of the assay plate, from columns 2 to 11. 190 μl culture media was added to columns 1 and 12. Plates were incubated for 96 hours at 37° C. in 5% CO2. 1 μM (final) rezasurin (converted to fluorescent resofurin by viable cells) was added to each well and the plates incubated for a further 4 hours. Fluorescence was read at 530-570 nm excitation, 580-620 nm emission using an Envision plate reader (Applied Biosystems). Data was then analysed by Graphpad PRISM, and an IC50 obtained (defined as the compound concentration needed to reduce the cell population by half).

[9] = system: K562 human chronic myeloid leukaemia cells; assay: K562 cell line MTT assay, 1 hour exposure; format: cell-based; settings: 1 hour incubation
Protocol: K562 Cell Line (MTT Assay)
K562 human chronic myeloid leukaemia cells were maintained in RPM1 1640 medium supplemented with 10% fetal calf serum and 2 mM glutamine at 37° C. in a humidified atmosphere containing 5% CO2 and were incubated with a specified dose of drug for 1 hour at 37° C. in the dark. The incubation was terminated by centrifugation (5 min, 300 g) and the cells were washed once with drug-free medium. Following the appropriate drug treatment, the cells were transferred to 96-well microtiter plates (10^4 cells per well, 8 wells per sample). Plates were then kept in the dark at 37° C. in a humidified atmosphere containing 5% CO2. The assay is based on the ability of viable cells to reduce a yellow soluble tetrazolium salt, 3-(4,5-dimethylthiazol-2-yl)-2,5-diphenyl-2H-tetrazolium bromide (MTT, Aldrich-Sigma), to an insoluble purple formazan precipitate. Following incubation of the plates for 4 days (to allow control cells to increase in number by approximately 10 fold), 20 μL of MTT solution (5 mg/mL in phosphate-buffered saline) was added to each well and the plates further incubated for 5 h. The plates were then centrifuged for 5 min at 300 g and the bulk of the medium pipetted from the cell pellet leaving 10-20 μL per well. […] The optical density was then read at a wavelength of 550 nm on a Titertek Multiscan ELISA plate reader, and a dose-response curve was constructed. […]

In the case of “1,1′[[(Propane-1,5-diyl)dioxy]bis[(11aS)-11-sulpho-7-methoxy-2-(4-methoxyphenyl)-1,10,11,11a-tetrahydro-5H-pyrrolo[2,1-c][1,4]benzodiazepin-5-one]] sodium salt [ZC-423]”, the IC50 [1] is reported as 5.2 nM, the “Amount of compound (g) in 1 L water” value [2] is reported as 11 g in 1 L water and the “single intravenous (iv) maximum tolerated dose (MTD)” value [3] is reported as 3 mgkg^−1. The “activity (relative tumour volume vs control), Mann-Whitney analysis” value ([4]; single iv 3 mgkg^−1, FIG. 1) was “statistically significant”, the tumour free animals ([4]; single iv 3 mgkg^−1, at 68 days, FIG. 2) was “all animals were tumour free” and the IC50 [5] was 4.83 nM. It also gave an IC50 [6] of 1.5 nM.
COc1cc2c(cc1OCCCOc1cc3c(cc1OC)C(=O)N1C=C(c4ccc5ccccc5c4)C[C@H]1C=N3)N=C[C@@H]1CC(c3ccc4ccccc4c3)=CN1C2=O [Compound 18] gave an IC50 [7] of 200 nM.
With COc1cc2c(cc1OCCCOc1cc3c(cc1OC)C(=O)N1C=C(c4cccs4)C[C@H]1C=N3)N=C[C@@H]1CC(c3cccs3)=CN1C2=O [Compound 21] the IC50 [7] was 500 nM.
Molecule COc1cccc(C2=CN3C(=O)c4cc(OC)c(OCCCOc5cc6c(cc5OC)C(=O)N5C=C(c7cccc(OC)c7)C[C@H]5C=N6)cc4N=C[C@@H]3C2)c1 [Compound 26, 1,1′-[[(Propane-1,3-diyl)dioxy]bis[(11aS)-7-methoxy-2-(3-methoxybenzene)-1,11a-dihydro-5H-pyrrolo[2,1-c][1,4]benzodiazepine-5-one]]] has an IC50 ([8]; Homo sapiens) of less than 1 nM.
With COc1cccc(C2=CN3C(=O)c4cc(OC)c(OCCCOc5cc6c(cc5OC)C(=O)N5C=C(c7cccc(OC)c7)C[C@H]5C(S(=O)(=O)[O-])N6)cc4NC(S(=O)(=O)[O-])[C@@H]3C2)c1.[Na+].[Na+] (stereo partly drawn) [Compound 27, 1,1′-[[(Propane-1,3-diyl)dioxy]bis[(11aS)-11-sulpho-7-methoxy-2-(3-methoxybenzene)-1, 10,11,11a-tetrahydro-5H-pyrrolo[2,1-c][1,4]benzodiazepin-5-one]] sodium salt] the “Amount of compound (g) in 1 L water” value [2] was 9 g in 1 L water and the IC50 [8] was less than 1 nM.
In the case of COc1cc2c(cc1OCCCOc1cc3c(cc1OC)C(=O)N1C=C(c4ccc5c(c4)OCO5)C[C@H]1C=N3)N=C[C@@H]1CC(c3ccc4c(c3)OCO4)=CN1C2=O [Compound 29], the IC50 ([8]; Homo sapiens) is reported as less than 1 nM.
COc1cc2c(cc1OCCCOc1cc3c(cc1OC)C(=O)N1C=C(c4ccc(F)cc4)C[C@H]1C=N3)N=C[C@@H]1CC(c3ccc(F)cc3)=CN1C2=O [Compound 32, 1,1′-[[(Propane-1,3-diyl)dioxy]bis[(11aS)-7-methoxy-2-(4-fluorobenzene)-1,11a-dihydro-5H-pyrrolo[2,1-c][1,4]benzodiazepine-5-one]]] gave an IC50 ([8]; Homo sapiens) of less than 1 nM.
For COc1cc2c(cc1OCCCOc1cc3c(cc1OC)C(=O)N1C=C(c4ccc(F)cc4)C[C@H]1C(S(=O)(=O)[O-])N3)NC(S(=O)(=O)[O-])[C@@H]1CC(c3ccc(F)cc3)=CN1C2=O.[Na+].[Na+] (stereo partly drawn) [Compound 33, 1,1′-[[(Propane-1,3-diyl)dioxy]bis[(11aS)-11-sulpho-7-methoxy-2-(4-fluorobenzene)-1, 10,11,11a-tetrahydro-5H-pyrrolo[2,1-c][1,4]benzodiazepin-5-one]] sodium salt], the “Amount of compound (g) in 1 L water” value [2] was 3 g in 1 L water and the IC50 [8] was less than 1 nM.
With COc1ccc(C2=CN3C(=O)c4cc(OC)c(OCCCOc5cc6c(cc5OC)C(=O)N5C=C(c7ccc(OC)cc7)C[C@H]5C=N6)cc4N=C[C@@H]3C2)cc1 [ZC-207, 1,1′-[[(Propane-1,3-diyl)dioxy]bis[(11aS)-7-methoxy-2-(p-methoxybenzene)-1,11a-dihydro-5H-pyrrolo[2,1-c][1,4]benzodiazepine-5-one]]] the IC50 [9] was 5.3 nM and the “Amount of compound (g) in 1 L water” value [2] was “Insoluble”.
